Data taken from article doi:10.1101/2020.01.23.916502v1 (biorxiv, 2020).

How the values were obtained:
Assay in all cases: NanoBRET tracer displacement in live HEK293T cells
Assay type in all cases: cell-based
DDR1 = DDR1 (Homo sapiens, UniProt Q08345)
MAPK9 = MAPK9 (Homo sapiens, UniProt P45984)
PNCK = PNCK (Homo sapiens, UniProt Q6P2M8)
JAK1 = JAK1 (Homo sapiens, UniProt P23458)
PIK3CA = PIK3CA (Homo sapiens, UniProt P42336)

Measured: IC50

Sequence of DDR1 (Q08345 19-913): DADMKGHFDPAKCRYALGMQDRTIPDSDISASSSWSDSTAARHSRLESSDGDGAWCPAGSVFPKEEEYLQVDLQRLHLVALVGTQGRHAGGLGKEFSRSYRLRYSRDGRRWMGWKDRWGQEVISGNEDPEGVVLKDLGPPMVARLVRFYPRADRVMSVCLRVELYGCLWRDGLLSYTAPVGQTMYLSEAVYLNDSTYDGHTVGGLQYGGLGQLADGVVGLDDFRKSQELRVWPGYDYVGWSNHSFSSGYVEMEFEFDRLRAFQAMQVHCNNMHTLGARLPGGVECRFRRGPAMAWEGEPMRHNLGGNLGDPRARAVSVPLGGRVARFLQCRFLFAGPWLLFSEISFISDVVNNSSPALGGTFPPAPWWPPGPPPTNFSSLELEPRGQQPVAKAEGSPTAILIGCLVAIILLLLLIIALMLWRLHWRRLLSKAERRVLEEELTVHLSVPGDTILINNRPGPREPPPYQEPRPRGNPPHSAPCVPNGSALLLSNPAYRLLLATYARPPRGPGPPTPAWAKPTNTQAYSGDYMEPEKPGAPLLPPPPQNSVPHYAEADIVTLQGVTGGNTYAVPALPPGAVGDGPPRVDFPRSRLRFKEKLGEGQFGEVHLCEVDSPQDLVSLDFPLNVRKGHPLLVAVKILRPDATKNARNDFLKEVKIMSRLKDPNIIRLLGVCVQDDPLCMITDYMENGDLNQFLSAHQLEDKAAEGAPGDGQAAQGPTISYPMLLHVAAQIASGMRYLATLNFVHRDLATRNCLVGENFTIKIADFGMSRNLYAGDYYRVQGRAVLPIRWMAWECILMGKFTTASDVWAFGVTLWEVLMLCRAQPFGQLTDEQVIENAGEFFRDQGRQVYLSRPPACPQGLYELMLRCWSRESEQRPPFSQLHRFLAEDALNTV
Sequence of JAK1 (P23458 whole entry): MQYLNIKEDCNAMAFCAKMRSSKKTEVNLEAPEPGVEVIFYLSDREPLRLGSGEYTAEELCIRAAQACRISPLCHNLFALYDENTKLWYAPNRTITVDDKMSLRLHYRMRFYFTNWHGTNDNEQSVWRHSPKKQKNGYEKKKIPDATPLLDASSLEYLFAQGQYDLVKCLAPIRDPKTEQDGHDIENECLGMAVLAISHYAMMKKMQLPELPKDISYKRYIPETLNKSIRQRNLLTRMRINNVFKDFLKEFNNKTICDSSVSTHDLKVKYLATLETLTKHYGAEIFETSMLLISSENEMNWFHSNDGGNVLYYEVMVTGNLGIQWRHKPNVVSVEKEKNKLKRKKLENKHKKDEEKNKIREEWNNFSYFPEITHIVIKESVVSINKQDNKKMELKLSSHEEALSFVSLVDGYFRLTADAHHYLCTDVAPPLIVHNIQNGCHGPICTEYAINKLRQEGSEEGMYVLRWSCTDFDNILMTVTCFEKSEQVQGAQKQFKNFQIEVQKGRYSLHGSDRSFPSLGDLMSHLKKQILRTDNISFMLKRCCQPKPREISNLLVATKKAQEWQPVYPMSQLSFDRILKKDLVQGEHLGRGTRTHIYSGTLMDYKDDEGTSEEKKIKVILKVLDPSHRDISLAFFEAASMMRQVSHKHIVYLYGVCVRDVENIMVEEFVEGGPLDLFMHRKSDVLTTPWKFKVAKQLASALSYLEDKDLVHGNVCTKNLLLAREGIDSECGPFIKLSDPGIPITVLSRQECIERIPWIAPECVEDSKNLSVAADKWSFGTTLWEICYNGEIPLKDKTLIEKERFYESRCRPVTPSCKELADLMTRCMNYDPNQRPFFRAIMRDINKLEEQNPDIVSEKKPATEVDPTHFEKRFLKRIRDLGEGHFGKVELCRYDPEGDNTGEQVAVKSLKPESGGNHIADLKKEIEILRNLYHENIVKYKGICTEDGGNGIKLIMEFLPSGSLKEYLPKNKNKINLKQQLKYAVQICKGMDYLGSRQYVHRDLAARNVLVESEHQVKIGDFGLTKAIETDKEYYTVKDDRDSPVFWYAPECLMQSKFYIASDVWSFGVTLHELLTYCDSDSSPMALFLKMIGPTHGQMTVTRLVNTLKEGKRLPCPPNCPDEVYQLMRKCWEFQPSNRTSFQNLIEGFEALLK
Sequence of PNCK (Q6P2M8 whole entry): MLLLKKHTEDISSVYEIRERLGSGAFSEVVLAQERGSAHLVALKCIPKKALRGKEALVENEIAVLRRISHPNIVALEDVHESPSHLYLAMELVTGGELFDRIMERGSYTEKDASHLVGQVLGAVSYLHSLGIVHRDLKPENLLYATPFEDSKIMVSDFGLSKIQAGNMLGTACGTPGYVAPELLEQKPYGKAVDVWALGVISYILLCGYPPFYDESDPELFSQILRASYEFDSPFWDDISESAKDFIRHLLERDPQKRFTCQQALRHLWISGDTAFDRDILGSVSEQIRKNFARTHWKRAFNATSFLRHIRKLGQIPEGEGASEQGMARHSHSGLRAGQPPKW
Sequence of PIK3CA (P42336 whole entry): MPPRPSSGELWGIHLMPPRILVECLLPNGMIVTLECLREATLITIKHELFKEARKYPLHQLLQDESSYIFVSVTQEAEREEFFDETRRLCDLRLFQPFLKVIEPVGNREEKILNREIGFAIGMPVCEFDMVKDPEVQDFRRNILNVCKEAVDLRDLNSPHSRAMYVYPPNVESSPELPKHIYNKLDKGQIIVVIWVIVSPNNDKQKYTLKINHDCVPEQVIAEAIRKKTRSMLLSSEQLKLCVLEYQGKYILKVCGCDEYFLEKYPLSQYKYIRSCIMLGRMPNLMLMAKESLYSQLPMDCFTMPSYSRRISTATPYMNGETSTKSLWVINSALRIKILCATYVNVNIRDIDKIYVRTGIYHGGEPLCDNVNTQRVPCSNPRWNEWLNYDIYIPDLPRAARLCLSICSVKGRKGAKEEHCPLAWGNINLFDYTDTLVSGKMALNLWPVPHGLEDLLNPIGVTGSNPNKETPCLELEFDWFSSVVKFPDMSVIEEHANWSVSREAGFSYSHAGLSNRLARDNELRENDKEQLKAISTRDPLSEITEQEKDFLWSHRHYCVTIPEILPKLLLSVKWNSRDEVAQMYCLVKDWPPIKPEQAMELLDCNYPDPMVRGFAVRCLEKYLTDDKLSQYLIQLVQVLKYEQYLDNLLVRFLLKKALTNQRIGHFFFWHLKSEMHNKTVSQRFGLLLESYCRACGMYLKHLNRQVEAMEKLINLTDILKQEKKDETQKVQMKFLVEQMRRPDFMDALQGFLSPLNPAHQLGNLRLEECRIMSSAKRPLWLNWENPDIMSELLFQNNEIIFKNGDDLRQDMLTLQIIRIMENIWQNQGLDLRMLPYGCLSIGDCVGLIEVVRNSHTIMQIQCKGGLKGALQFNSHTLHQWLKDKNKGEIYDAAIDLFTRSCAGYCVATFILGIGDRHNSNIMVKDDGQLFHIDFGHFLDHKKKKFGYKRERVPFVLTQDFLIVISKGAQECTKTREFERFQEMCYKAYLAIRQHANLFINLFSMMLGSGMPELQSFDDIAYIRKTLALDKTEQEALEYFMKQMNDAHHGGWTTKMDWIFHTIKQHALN
Sequence of MAPK9 (P45984 whole entry): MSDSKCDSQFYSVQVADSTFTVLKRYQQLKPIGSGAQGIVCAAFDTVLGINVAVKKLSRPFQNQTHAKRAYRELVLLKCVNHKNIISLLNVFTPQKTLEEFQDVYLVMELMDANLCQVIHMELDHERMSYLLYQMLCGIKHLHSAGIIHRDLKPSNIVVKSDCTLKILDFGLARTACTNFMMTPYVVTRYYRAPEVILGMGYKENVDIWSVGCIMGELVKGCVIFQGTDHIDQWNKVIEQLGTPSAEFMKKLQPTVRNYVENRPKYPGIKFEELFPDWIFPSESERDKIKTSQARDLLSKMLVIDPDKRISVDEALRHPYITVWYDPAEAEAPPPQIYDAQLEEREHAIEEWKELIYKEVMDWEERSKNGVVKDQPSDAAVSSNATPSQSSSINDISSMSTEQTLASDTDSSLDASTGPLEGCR

Cc1ccc2c(c1)n(CC(N)=O)c(=O)n2-c1cc(-c2cc(Cl)ccc2F)ncc1C [compound 16, THAI14]
> 20 µM: all assays above

Cc1cnc(-c2cc(Cl)ccc2F)cc1-n1c(=O)n(CC(N)=O)c2ccccc21 [compound 15, THAI11]
> 20 µM: all assays above
